Read-outs that look alike come from different tables or passages of the source.
Assays:
Experiment in all cases: microbe, parasite or virus in culture
Format in all cases: cell-based
[1] = tested on: HCV 3a RLuc cells (NS5A chimeric genotype 1b Con1 replicon with consensus genotype 3a NS5A gene); settings: Hepatitis C virus
Experimental: (§1) Evaluation of cell-based anti-HCV activity: Antiviral potency (EC50) was determined using a Renilla luciferase (RLuc)-based HCV replicon reporter assay. To perform the assay for genotype 1 and 2a JFH-1, HCV 1b RLuc cells (harboring a dicistronic genotype 1b Con1 replicon that encodes a RLuc reporter), or HCV 1a RLuc cells (harboring a dicistronic genotype 1a H77 replicon that encodes a RLuc reporter), or HCV 2a JFH-1 Rluc cells (harboring a dicistronic genotype 2a JFH-1 replicon that encodes a RLuc reporter) were dispensed into 384-well plates. To perform the assay for genotype 2a (with M31 present) or 2b, HCV 2a Rluc or 2b Rluc cells (both with M31 present) harboring a dicistronic NS5A chimeric genotype 2a JFH-1 replicon that encodes a RLuc reporter and either genotype 2a J6 strain NS5A gene or genotype 2b MD2b-1 NS5A gene (based on Los Alamos HCV database isolates, both with M31 present) respectively, were dispensed into 384-well plates. To perform the assay for genotype 3 and 4, HCV 3a RLuc or 4a Rluc cells harboring a dicistronic NS5A chimeric genotype 1b Con1 replicon that encodes a RLuc reporter and either a consensus genotype 3a NS5A gene or genotype 4a NS5A gene (based on Los Alamos HCV database isolates) respectively, were dispensed into 384-well plates. Compounds were re-suspended in DMSO at a concentration of 10 mM and serially diluted in DMSO either manually or using an automated pipeting instrument. Serially diluted compounds were mixed with cell culture media and added to the seeded cells. […] 72 hours later, cells were lysed and Renilla luciferase activity quantified as recommended by the manufacturer (Promega-Madison, Wis.). Non-linear regression was performed to calculate EC50 values.

[2] = tested on: HCV 4a Rluc cells (NS5A chimeric genotype 1b Con1 replicon with genotype 4a NS5A gene); settings: Hepatitis C virus, read-out: 4a
Experimental: as §1

[3] = tested on: HCV 2a JFH-1 Rluc cells (dicistronic genotype 2a JFH-1 replicon, RLuc reporter); settings: Hepatitis C virus, genotype 2a JFH-1 replicon, read-out: 2a JFH
Experimental: as §1

[4] = tested on: HCV 1a RLuc cells (dicistronic genotype 1a H77 replicon, RLuc reporter); settings: Hepatitis C virus, read-out: 1a
Experimental: as §1

[5] = tested on: HCV 1b RLuc cells (dicistronic genotype 1b Con1 replicon, RLuc reporter); settings: Hepatitis C virus, read-out: 1b (nM)
Experimental: as §1

[6] = read-out: 3a, genotype 3a replicon
[7] = read-out: 3a, genotype 3a NS5A chimeric 1b Con1 replicon
[8] = genotype 1a H77 replicon, RLuc reporter
[9] = read-out: 3a, Table 2, genotype 3a NS5A chimeric replicon
[10] = 72 h, Table 2, genotype 1a H77 replicon, 72 hours

| SMILES | EC50 [1, 6] | EC50 [2] | EC50 [3] | EC50 ([4]; genotype 1a replicon) | EC50 [5] | EC50 [1, 7] | EC50 ([3]; RLuc reporter) | EC50 [4, 8] | EC50 [1, 9] | EC50 ([3]; 72 h, Table 2, 72 hours) | EC50 [4, 10] | EC50 ([5]; 72 h) |
| --- | --- | --- | --- | --- | --- | --- | --- | --- | --- | --- | --- | --- |
| COC(=O)N[C@H](C(=O)N1CCC[C@H]1c1ncc(-c2cc3c4c(c2)OCc2cc(-c5cnc([C@@H]6CCCN6C(=O)C(c6ccccc6)N(C)C)[nH]5)cc(c2-4)OC3)[nH]1)C(C)C (stereo partly shown) [Example 307] | 0.001 to 0.99 nM | 0.001 to 0.99 nM | 0.001 to 0.999 nM | 0.001 to 0.999 nM | 0.091 nM | – | – | – | – | – | – | – |
| COC(=O)NC(C(=O)N1CCC[C@H]1c1nc(-c2ccc3cc(-c4ccc5c(ccc6nc([C@@H]7CCCN7C(=O)[C@@H](NC(=O)OC)C(C)C)[nH]c65)c4)ccc3c2)c[nH]1)c1cccnc1 (stereo partly shown) [Example 228] | – | 0.001 to 0.99 nM | – | – | 0.015 nM | 0.001 to 0.99 nM | 0.001 to 0.999 nM | 0.001 to 0.999 nM | – | – | – | – |
| COC(=O)N[C@H](C(=O)N1CCC[C@H]1c1nc2ccc3cc(-c4ccc5c(ccc6nc([C@@H]7[C@H]8CC[C@H](C8)N7C(=O)[C@@H](NC(=O)OC)[C@@H](C)OC)[nH]c65)c4)ccc3c2[nH]1)C(C)C [Example 64] | – | 0.001 to 0.99 nM | – | – | – | – | – | – | 0.001 to 0.99 nM | 0.001 to 0.999 nM | 0.001 to 0.999 nM | 0.018 nM |
| COC(=O)N[C@H](C(=O)N1[C@@H]2CC[C@@H](C2)[C@H]1c1ncc(-c2ccc3cc(-c4ccc5c(ccc6nc([C@@H]7CCCN7C(=O)[C@H](NC(=O)OC)c7ccccc7)[nH]c65)c4)ccc3c2)[nH]1)[C@@H](C)OC [Example 102] | – | 0.001 to 0.99 nM | – | – | – | – | – | – | 0.001 to 0.99 nM | 0.001 to 0.999 nM | 0.001 to 0.999 nM | 0.009 nM |
| COC(=O)N[C@H](C(=O)N1CCC[C@H]1c1ncc(-c2ccc(-c3ccc4c(ccc5nc([C@@H]6SCCN6C(=O)[C@@H](NC(=O)OC)C(C)C)[nH]c54)c3)cc2)[nH]1)C(C)C [Example 333] | 1 to 4.99 nM | 0.001 to 0.99 nM | 0.001 to 0.999 nM | 1 to 44 nM | 0.646 nM | – | – | – | – | – | – | – |
| COC(=O)N[C@@H](C)C(=O)N1CCC[C@H]1c1nc2c([nH]1)-c1ccc(-c3ccc4cc(-c5cnc([C@@H]6CCCN6C(=O)[C@H](NC(=O)OC)c6ccccc6)[nH]5)ccc4c3)cc1CC2 [Example 272] | – | 1 to 4.99 nM | – | – | – | > 5 nM | > 44 nM | > 44 nM | – | – | – | – |
| COC(=O)N[C@H](C(=O)N1CCC[C@H]1c1nc2c([nH]1)COc1cc(-c3ccc4cc(-c5c[nH]c([C@@H]6CCCN6C(=O)[C@@H](c6ccccc6)N(C)C)n5)ccc4c3)ccc1-2)C1CCOCC1 [Example 182] | – | – | – | – | 0.05 nM | 0.001 to 0.99 nM | 0.001 to 0.999 nM | 0.001 to 0.999 nM | – | – | – | – |
| COC(=O)N[C@H](C(=O)N1C[C@@H](C#N)C[C@H]1c1nc2ccc(-c3ccc(-c4ccc5c(c4)CCc4nc([C@@H]6CCCN6C(=O)[C@H](NC(=O)OC)c6ccccc6)[nH]c4-5)cc3)cc2[nH]1)C1CCOCC1 [Example 167] | – | – | – | – | 0.048 nM | 0.001 to 0.99 nM | 0.001 to 0.999 nM | 0.001 to 0.999 nM | – | – | – | – |
| COC(=O)NC(C(=O)N1CCC[C@H]1c1ncc(-c2ccc(-c3ccc4cc(-c5cnc([C@@H]6CCCN6C(=O)[C@@H](NC(=O)OC)C(C)C)[nH]5)ccc4c3)cc2)[nH]1)c1ccccn1 (stereo partly shown) [Example 183] | – | – | – | – | 0.013 nM | 1 to 4.99 nM | 0.001 to 0.999 nM | 0.001 to 0.999 nM | – | – | – | – |
| COC(=O)N[C@H](C(=O)N1CCC[C@H]1c1ncc(-c2ccc(-c3ccc4cc(-c5cnc([C@@H]6CCCN6C(=O)C(c6ccccc6)N(C)C)[nH]5)ccc4c3)cc2)[nH]1)C(C)C (stereo partly shown) [Example 110] | – | – | – | – | 0.009 nM | 0.001 to 0.99 nM | 0.001 to 0.999 nM | 0.001 to 0.999 nM | – | – | – | – |
| COC(=O)N[C@H](C(=O)N1CCC[C@H]1c1ncc(-c2ccc3cc(-c4ccc(-c5cnc([C@@H]6CCCN6C(=O)[C@H](NC(=O)OC)c6cccnc6)[nH]5)cc4)ccc3c2)[nH]1)C(C)C [Example 161] | – | – | – | – | 0.019 nM | 0.001 to 0.99 nM | 0.001 to 0.999 nM | 0.001 to 0.999 nM | – | – | – | – |

— patent US10344019B2 (priority 2010, dated 2019)
